{"source": "ChEMBL document CHEMBL1132066", "about": "“Synthesis of alpha-C(1-->3)-mannopyranoside of N-acetylgalactosamine, a new beta-galactosidase inhibitor” (Bioorg Med Chem Lett, 1999)", "key": {"[1]": {"test_system": "Beta-galactosidase (Canavalia ensiformis)", "experiment": "Compound was evaluated for the percentage inhibition of beta-galactosidase enzyme from jack bean at the concentration of 1 mM"}, "[2]": {"molecular_target": "Beta-galactosidase (Escherichia coli, UniProt Q8VNN2)", "sequence (Q8VNN2 whole entry)": "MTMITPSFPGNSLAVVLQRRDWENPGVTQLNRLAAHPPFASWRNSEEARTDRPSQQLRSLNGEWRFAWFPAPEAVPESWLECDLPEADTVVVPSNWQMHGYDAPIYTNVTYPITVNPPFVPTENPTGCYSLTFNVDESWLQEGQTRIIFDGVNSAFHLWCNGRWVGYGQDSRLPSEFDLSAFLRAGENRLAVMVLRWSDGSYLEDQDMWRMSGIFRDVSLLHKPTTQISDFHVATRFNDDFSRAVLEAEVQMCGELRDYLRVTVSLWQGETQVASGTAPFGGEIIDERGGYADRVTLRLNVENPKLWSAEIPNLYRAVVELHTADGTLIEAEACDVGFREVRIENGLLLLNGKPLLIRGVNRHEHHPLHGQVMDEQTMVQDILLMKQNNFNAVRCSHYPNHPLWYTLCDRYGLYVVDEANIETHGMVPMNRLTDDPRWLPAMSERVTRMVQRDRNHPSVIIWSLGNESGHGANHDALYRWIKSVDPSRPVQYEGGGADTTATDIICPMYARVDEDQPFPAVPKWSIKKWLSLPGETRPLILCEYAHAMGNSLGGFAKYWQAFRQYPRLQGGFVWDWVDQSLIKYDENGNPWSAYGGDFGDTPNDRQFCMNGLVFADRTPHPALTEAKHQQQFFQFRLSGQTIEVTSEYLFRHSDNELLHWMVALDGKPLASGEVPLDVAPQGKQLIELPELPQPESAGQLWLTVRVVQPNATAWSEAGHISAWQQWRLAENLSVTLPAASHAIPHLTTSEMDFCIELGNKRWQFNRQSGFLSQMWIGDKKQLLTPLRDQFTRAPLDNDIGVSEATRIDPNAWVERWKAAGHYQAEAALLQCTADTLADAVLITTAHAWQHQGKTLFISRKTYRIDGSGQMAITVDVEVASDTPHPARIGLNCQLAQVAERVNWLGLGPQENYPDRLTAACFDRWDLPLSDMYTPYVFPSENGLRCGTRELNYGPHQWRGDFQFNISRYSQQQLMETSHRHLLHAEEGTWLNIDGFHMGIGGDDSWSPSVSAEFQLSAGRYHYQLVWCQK", "experiment": "Concentration required to inhibit beta-galactosidase enzyme by 50% from Escherichia coli was reported"}, "[3]": {"molecular_target": "Beta-galactosidase (Escherichia coli) (UniProt Q8VNN2)", "sequence (Q8VNN2 whole entry, looked up)": "as the sequence (Q8VNN2 whole entry) above", "experiment": "Compound was evaluated for the percentage inhibition of beta-galactosidase enzyme from Escherichia coli at the concentration of 1 mM"}}}
{"smiles": "CC(=O)N[C@@H]1C(O)O[C@H](CO)[C@H](O)[C@@H]1C[C@H]1O[C@H](CO)[C@@H](O)[C@H](O)[C@@H]1O.CC(=O)N[C@H]1C(O)O[C@H](C(O)CO)[C@@H]1C[C@H]1O[C@H](CO)[C@@H](O)[C@H](O)[C@@H]1O", "note": "(stereo partly drawn)", "values": [{"measurement": "inhibition", "setting": "[1]", "result": 92, "unit": "%"}, {"measurement": "IC50", "setting": "[2]", "result": 500, "unit": "µM"}, {"measurement": "inhibition", "setting": "[3]", "result": 86, "unit": "%"}]}
